Data reported in PubChem BioAssay (NCI).
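Exposure lasted 48 hours, with cells grown in 96-well plates and compounds tested at five concentrations. TGI: concentration producing complete growth inhibition.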

Tests used:
Assay in all cases: NCI anticancer screen, dose series, 48 h
RPMI-8226 leukemia = test system: RPMI-8226 leukemia
M14 melanoma = test system: M14 melanoma
MALME-3M melanoma = test system: MALME-3M melanoma
OVCAR-5 ovarian = test system: OVCAR-5 ovarian
MOLT-4 leukemia = test system: MOLT-4 leukemia
A498 renal = test system: A498 renal
SK-OV-3 ovarian = test system: SK-OV-3 ovarian
NCI-H23 lung = test system: NCI-H23 lung
UACC-62 melanoma = test system: UACC-62 melanoma
A549 NSCLC = test system: A549 NSCLC
SR leukemia = test system: SR leukemia
HOP-92 NSCLC = test system: HOP-92 NSCLC
HOP-62 NSCLC = test system: HOP-62 NSCLC
SF-268 CNS = test system: SF-268 CNS
UO-31 renal = test system: UO-31 renal
NCI-H460 lung = test system: NCI-H460 lung
K-562 leukemia = test system: K-562 leukemia
OVCAR-3 ovarian = test system: OVCAR-3 ovarian
786-0 renal = test system: 786-0 renal
SW-620 colon = test system: SW-620 colon
HCC-2998 colon = test system: HCC-2998 colon
COLO 205 colon = test system: COLO 205 colon
XF 498 CNS = test system: XF 498 CNS
SN12C renal = test system: SN12C renal
HCT-15 colon = test system: HCT-15 colon
KM20L2 colon = test system: KM20L2 colon
NCI-H226 lung = test system: NCI-H226 lung
HCT-116 colon = test system: HCT-116 colon
OVCAR-8 ovarian = test system: OVCAR-8 ovarian
SK-MEL-5 melanoma = test system: SK-MEL-5 melanoma
SNB-78 CNS = test system: SNB-78 CNS
SK-MEL-2 melanoma = test system: SK-MEL-2 melanoma
SF-539 CNS = test system: SF-539 CNS
HL-60(TB) leukemia = test system: HL-60(TB) leukemia
DLD-1 colon = test system: DLD-1 colon
CAKI-1 renal = test system: CAKI-1 renal
LXFL 529 NSCLC = test system: LXFL 529 NSCLC
RXF 393 renal = test system: RXF 393 renal
RXF-631 renal = test system: RXF-631 renal
KM12 colon = test system: KM12 colon
DMS 114 small cell lung = test system: DMS 114 small cell lung
UACC-257 melanoma = test system: UACC-257 melanoma
U251 CNS = test system: U251 CNS
LOX IMVI melanoma = test system: LOX IMVI melanoma
DMS 273 small cell lung = test system: DMS 273 small cell lung
SK-MEL-28 melanoma = test system: SK-MEL-28 melanoma
CCRF-CEM leukemia = test system: CCRF-CEM leukemia
SNB-75 CNS = test system: SNB-75 CNS
M19-MEL melanoma = test system: M19-MEL melanoma
ACHN renal = test system: ACHN renal
NCI-H522 lung = test system: NCI-H522 lung
HT29 colon = test system: HT29 colon
SF-295 CNS = test system: SF-295 CNS
IGROV1 ovarian = test system: IGROV1 ovarian
TK-10 renal = test system: TK-10 renal
OVCAR-4 ovarian = test system: OVCAR-4 ovarian
SNB-19 CNS = test system: SNB-19 CNS
EKVX NSCLC = test system: EKVX NSCLC

Compound: Nc1c(S(=O)(=O)c2ccccc2)c2nc3ccccc3nc2n2c1nc1ccccc12
- TGI (RPMI-8226 leukemia): > 100 µM
- TGI (M14 melanoma): > 31.6 µM
- TGI (MALME-3M melanoma): > 80.9 µM
- TGI (OVCAR-5 ovarian): > 100 µM
- TGI (MOLT-4 leukemia): > 100 µM
- TGI (A498 renal): > 100 µM
- TGI (SK-OV-3 ovarian): > 100 µM
- TGI (NCI-H23 lung): > 50 µM
- TGI (UACC-62 melanoma): > 100 µM
- TGI (A549 NSCLC): > 100 µM
- TGI (SR leukemia): > 100 µM
- TGI (HOP-92 NSCLC): > 100 µM
- TGI (HOP-62 NSCLC): > 49.6 µM
- TGI (SF-268 CNS): > 72.9 µM
- TGI (UO-31 renal): > 100 µM
- TGI (NCI-H460 lung): > 100 µM
- TGI (K-562 leukemia): > 100 µM
- TGI (OVCAR-3 ovarian): > 100 µM
- TGI (786-0 renal): > 50.5 µM
- TGI (SW-620 colon): > 100 µM
- TGI (HCC-2998 colon): > 100 µM
- TGI (COLO 205 colon): > 100 µM
- TGI (XF 498 CNS): > 44.5 µM
- TGI (SN12C renal): > 87.2 µM
- TGI (HCT-15 colon): > 100 µM
- TGI (KM20L2 colon): > 100 µM
- TGI (NCI-H226 lung): > 75.1 µM
- TGI (HCT-116 colon): > 100 µM
- TGI (OVCAR-8 ovarian): > 63.4 µM
- TGI (SK-MEL-5 melanoma): > 66.2 µM
- TGI (SNB-78 CNS): > 62.1 µM
- TGI (SK-MEL-2 melanoma): > 100 µM
- TGI (SF-539 CNS): > 53.9 µM
- TGI (HL-60(TB) leukemia): > 100 µM
- TGI (DLD-1 colon): > 100 µM
- TGI (CAKI-1 renal): > 100 µM
- TGI (LXFL 529 NSCLC): > 100 µM
- TGI (RXF 393 renal): > 100 µM
- TGI (RXF-631 renal): 47.5 µM
- TGI (KM12 colon): > 100 µM
- TGI (DMS 114 small cell lung): > 100 µM
- TGI (UACC-257 melanoma): > 100 µM
- TGI (U251 CNS): > 47.5 µM
- TGI (LOX IMVI melanoma): > 100 µM
- TGI (DMS 273 small cell lung): > 71.9 µM
- TGI (SK-MEL-28 melanoma): > 62.3 µM
- TGI (CCRF-CEM leukemia): > 100 µM
- TGI (SNB-75 CNS): > 51.1 µM
- TGI (M19-MEL melanoma): > 100 µM
- TGI (ACHN renal): > 100 µM
- TGI (NCI-H522 lung): > 100 µM
- TGI (HT29 colon): > 100 µM
- TGI (SF-295 CNS): > 53.4 µM
- TGI (IGROV1 ovarian): 98.9 µM
- TGI (TK-10 renal): > 100 µM
- TGI (OVCAR-4 ovarian): > 80.5 µM
- TGI (SNB-19 CNS): > 93.2 µM
- TGI (EKVX NSCLC): > 100 µM
